“And” between values parts separate entries of the source, which are not always exact repeats. Identical values can stand only once. Values belong to the molecule of their own block, whether it stands above or below them.
What was measured:
CyclinB/cdk1 = target: T1, CyclinB/cdk1 (Homo sapiens, UniProt P06493); assay: CyclinB/cdk1 protein kinase assay (histone H1 phosphorylation); format: biochemical; settings: complex immunopurified from HeLa cells; 15 μM ATP; replicate experiments
T1 construct: Monoclonal antibody against cyclinB (GNS1) is added to the supernatant; endogenous in cells
Protocol: HeLa cells are blocked at the G1/S border by culturing in the presence of 2 mM thymidine for 20 h. The cells are then rinsed 3×in phosphate buffered saline and resuspended in regular medium. After 4 h of culture, the mitotic blocker, nocodazole is added to a final concentration of 75 ng/ml. […] The lysate is then clarified by centrifugation at 10,000×g for 10 min. The supernatant is collected and diluted 1:5 with Lysis Buffer. Monoclonal antibody against cyclinB (GNS1) is added to the supernatant to a final concentration of 5 μg/ml and shaken at 4° C. for 2 h. The immune complexes are then collected by the addition of 200 μl of protein agarose beads for 1 h. The beads are washed 4×in lysis buffer and 1×in kinase assay buffer.
Duplicate assays were performed at each concentration.

CyclinA/cdk2 = CyclinA/cdk2 (Homo sapiens, UniProt P24941); assay: CyclinA/cdk2 protein kinase assay (histone H1 phosphorylation); settings: IC50 CyclinA/cdk2, complex immunopurified from HeLa cells; 15 μM ATP; replicate experiments
CyclinE/cdk2 = CyclinE/cdk2 (Homo sapiens, UniProt P24941); assay: CyclinE/cdk2 protein kinase assay (histone H1 phosphorylation); settings: IC50 CyclinE/cdk2, complex immunopurified from HeLa cells; 15 μM ATP; replicate experiments
BT-549 = assay: NCI 60-cell line growth inhibition assay; format: cell-based; settings: Homo sapiens; Breast, BT-549
MCF7 = assay: NCI 60-cell line growth inhibition assay; format: cell-based; settings: Homo sapiens; Breast, MCF7
MDA-MB-435 = assay: NCI 60-cell line growth inhibition assay; format: cell-based; settings: Homo sapiens; Breast, MDA-MB-435
NCI/ADR-RES = assay: NCI 60-cell line growth inhibition assay; format: cell-based; settings: Homo sapiens; Breast, NCI/ADR-RES
T-47D = assay: NCI 60-cell line growth inhibition assay; format: cell-based; settings: Homo sapiens, T47D; Breast, T-47D
SF-268 = assay: NCI 60-cell line growth inhibition assay; format: cell-based; settings: Homo sapiens; CNS, SF-268
SF-295 = assay: NCI 60-cell line growth inhibition assay; format: cell-based; settings: Homo sapiens; CNS, SF-295
SF-539 = assay: NCI 60-cell line growth inhibition assay; format: cell-based; settings: Homo sapiens; CNS, SF-539
SNB-19 = assay: NCI 60-cell line growth inhibition assay; format: cell-based; settings: Homo sapiens; CNS, SNB-19
U251 = assay: NCI 60-cell line growth inhibition assay; format: cell-based; settings: Homo sapiens, U-251; CNS, U251
COLO 205 = assay: NCI 60-cell line growth inhibition assay; format: cell-based; settings: Homo sapiens; Colon, COLO 205
HCC-2998 = assay: NCI 60-cell line growth inhibition assay; format: cell-based; settings: Homo sapiens; Colon, HCC-2998
HCT-116 = assay: NCI 60-cell line growth inhibition assay; format: cell-based; settings: Homo sapiens; Colon, HCT-116
HCT-15 = assay: NCI 60-cell line growth inhibition assay; format: cell-based; settings: Homo sapiens; Colon, HCT-15
HT29 = assay: NCI 60-cell line growth inhibition assay; format: cell-based; settings: Homo sapiens, HT-29; Colon, HT29
KM12 = assay: NCI 60-cell line growth inhibition assay; format: cell-based; settings: Homo sapiens; Colon, KM12
SW-620 = assay: NCI 60-cell line growth inhibition assay; format: cell-based; settings: Homo sapiens; Colon, SW-620
CCRF-CEM = assay: NCI 60-cell line growth inhibition assay; format: cell-based; settings: Homo sapiens; Leukemia, CCRF-CEM
HL-60(TB) = assay: NCI 60-cell line growth inhibition assay; format: cell-based; settings: Homo sapiens; Leukemia, HL-60(TB)
K-562 = assay: NCI 60-cell line growth inhibition assay; format: cell-based; settings: Homo sapiens, K562; Leukemia, K-562
MOLT-4 = assay: NCI 60-cell line growth inhibition assay; format: cell-based; settings: Homo sapiens; Leukemia, MOLT-4
RPMI-8226 = assay: NCI 60-cell line growth inhibition assay; format: cell-based; settings: Homo sapiens; Leukemia, RPMI-8226
SR = assay: NCI 60-cell line growth inhibition assay; format: cell-based; settings: Homo sapiens; Leukemia, SR
LOX IMVI = assay: NCI 60-cell line growth inhibition assay; format: cell-based; settings: Homo sapiens; Melanoma, LOX IMVI
M14 = assay: NCI 60-cell line growth inhibition assay; format: cell-based; settings: Homo sapiens; Melanoma, M14
MALME-3M = assay: NCI 60-cell line growth inhibition assay; format: cell-based; settings: Homo sapiens; Melanoma, MALME-3M
SK-MEL-2 = assay: NCI 60-cell line growth inhibition assay; format: cell-based; settings: Homo sapiens; Melanoma, SK-MEL-2
SK-MEL-28 = assay: NCI 60-cell line growth inhibition assay; format: cell-based; settings: Homo sapiens; Melanoma, SK-MEL-28
SK-MEL-5 = assay: NCI 60-cell line growth inhibition assay; format: cell-based; settings: Homo sapiens; Melanoma, SK-MEL-5
UACC-257 = assay: NCI 60-cell line growth inhibition assay; format: cell-based; settings: Homo sapiens; Melanoma, UACC-257
UACC-62 = assay: NCI 60-cell line growth inhibition assay; format: cell-based; settings: Homo sapiens; Melanoma, UACC-62
A549/ATCC = assay: NCI 60-cell line growth inhibition assay; format: cell-based; settings: Homo sapiens; Non-Small Cell Lung, A549/ATCC
EKVX = assay: NCI 60-cell line growth inhibition assay; format: cell-based; settings: Homo sapiens; Non-Small Cell Lung, EKVX
HOP-62 = assay: NCI 60-cell line growth inhibition assay; format: cell-based; settings: Homo sapiens; Non-Small Cell Lung, HOP-62
NCI-H23 = assay: NCI 60-cell line growth inhibition assay; format: cell-based; settings: Homo sapiens; Non-Small Cell Lung, NCI-H23
NCI-H322M = assay: NCI 60-cell line growth inhibition assay; format: cell-based; settings: Homo sapiens; Non-Small Cell Lung, NCI-H322M
NCI-H460 = assay: NCI 60-cell line growth inhibition assay; format: cell-based; settings: Homo sapiens; Non-Small Cell Lung, NCI-H460
NCI-H522 = assay: NCI 60-cell line growth inhibition assay; format: cell-based; settings: Homo sapiens; Non-Small Cell Lung, NCI-H522
IGROV1 = assay: NCI 60-cell line growth inhibition assay; format: cell-based; settings: Homo sapiens, IGROV-1; Ovarian, IGROV1
OVCAR-3 = assay: NCI 60-cell line growth inhibition assay; format: cell-based; settings: Homo sapiens; Ovarian, OVCAR-3
OVCAR-4 = assay: NCI 60-cell line growth inhibition assay; format: cell-based; settings: Homo sapiens; Ovarian, OVCAR-4
OVCAR-5 = assay: NCI 60-cell line growth inhibition assay; format: cell-based; settings: Homo sapiens; Ovarian, OVCAR-5
OVCAR-8 = assay: NCI 60-cell line growth inhibition assay; format: cell-based; settings: Homo sapiens; Ovarian, OVCAR-8
SK-OV-3 = assay: NCI 60-cell line growth inhibition assay; format: cell-based; settings: Homo sapiens; Ovarian, SK-OV-3
DU-145 = assay: NCI 60-cell line growth inhibition assay; format: cell-based; settings: Homo sapiens; Prostate, DU-145
PC-3 = assay: NCI 60-cell line growth inhibition assay; format: cell-based; settings: Homo sapiens; Prostate, PC-3
786-0 = assay: NCI 60-cell line growth inhibition assay; format: cell-based; settings: Homo sapiens; Renal, 786-0
ACHN = assay: NCI 60-cell line growth inhibition assay; format: cell-based; settings: Homo sapiens; Renal, ACHN
CAKI-1 = assay: NCI 60-cell line growth inhibition assay; format: cell-based; settings: Homo sapiens; Renal, CAKI-1
TK-10 = assay: NCI 60-cell line growth inhibition assay; format: cell-based; settings: Homo sapiens; Renal, TK-10
UO-31 = assay: NCI 60-cell line growth inhibition assay; format: cell-based; settings: Homo sapiens; Renal, UO-31
HeLa S-3 cells = assay: Inhibition of cell growth of HeLa cells (SRB); format: cell-based, human; settings: Homo sapiens, HeLa S3, 48 h, 2 days of treatment, replicate experiments
Protocol: Growth inhibition (GI50) values were measured with HeLa S-3 cells selected for growth on plastic. […] One day later, a control plate was fixed by addition of TCA to 5%. After five rinses with tap water the plate was air dried and stored at 4° C. Test compounds were added to the remaining plates at 10-fold dilutions between 0.01 and 100 μM. Two days later all plates were fixed as described above. Cells were then stained by the addition of 100 μl per well of 0.4% sulforhodamine B (SRB) in 1% acetic acid for 30 min at 4° C. Wells were then quickly rinsed 5×with acetic acid (1%) and allowed to air dry. The SRB was then solubilized by the addition of 100 μl per well of unbuffered 10 mM Tris base. Dye was quantified by measuring absorbance at 490 nm on a Molecular Devices kinetic microplate reader. Growth at each inhibitor concentration relative to the untreated control was calculated according to the following equation: percent growth=100×(T−To)/(C−To), where T was the average optical density (OD) of the test wells after 2 days of treatment, To was the average OD of the wells in the control plate on day 0 and C was the average OD of untreated wells. Plots of percent growth versus inhibitor concentration were used to determine the GI50.

[1] = tested on: Tumor Cells in Hollow Fibers; assay: NCI Hollow Fiber Assay (in vivo evaluation)
[2] = MTD (NCI in vivo evaluation, Table 8); settings: mouse

T1 sequence (P06493 whole entry): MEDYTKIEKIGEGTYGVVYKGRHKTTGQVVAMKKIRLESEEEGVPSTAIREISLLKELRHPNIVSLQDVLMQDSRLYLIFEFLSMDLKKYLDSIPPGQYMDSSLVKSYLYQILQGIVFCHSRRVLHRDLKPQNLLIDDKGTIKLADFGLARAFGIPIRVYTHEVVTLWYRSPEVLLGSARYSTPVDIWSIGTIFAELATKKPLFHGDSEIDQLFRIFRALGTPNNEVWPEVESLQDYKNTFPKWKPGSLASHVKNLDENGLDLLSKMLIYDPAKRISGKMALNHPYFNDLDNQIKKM
T1 sequence (P14635 whole entry partner): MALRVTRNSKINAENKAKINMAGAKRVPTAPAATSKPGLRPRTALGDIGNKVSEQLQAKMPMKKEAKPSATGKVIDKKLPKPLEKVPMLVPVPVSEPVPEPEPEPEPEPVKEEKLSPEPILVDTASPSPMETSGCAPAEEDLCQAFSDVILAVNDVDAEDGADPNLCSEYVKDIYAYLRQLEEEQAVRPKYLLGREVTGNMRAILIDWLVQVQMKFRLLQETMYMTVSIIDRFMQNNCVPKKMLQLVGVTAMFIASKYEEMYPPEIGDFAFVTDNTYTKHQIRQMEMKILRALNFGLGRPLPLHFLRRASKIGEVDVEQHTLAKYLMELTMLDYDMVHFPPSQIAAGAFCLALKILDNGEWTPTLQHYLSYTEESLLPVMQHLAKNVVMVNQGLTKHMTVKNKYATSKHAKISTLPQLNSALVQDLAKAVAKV

IC50 (CyclinB/cdk1): > 10 µM
melting point: 196 to 200 °C
IC50 (CyclinA/cdk2): > 10 µM
IC50 (CyclinE/cdk2): 4 µM and 14 µM
SMILES: CC(C)n1cnc2c(NCc3ccc(-c4ccccc4)cc3)nc(N[C@H]3CC[C@H](O)CC3)nc21 [Compound 77]

GI50 (HeLa S-3 cells): > 10 µM
melting point: 246 to 249 °C (dec.)
IC50 (CyclinA/cdk2): 3 µM
IC50 (CyclinE/cdk2): 0.7 µM
SMILES: CC(C)n1cnc2c(NCc3ccc(-c4ccc(C(=O)O)cc4)cc3)nc(N[C@H]3CC[C@H](N)CC3)nc21 [Compound 114]

GI50 (HeLa S-3 cells): 3 µM
melting point: 194 to 197 °C
IC50 (CyclinA/cdk2): 3 µM
IC50 (CyclinE/cdk2): 0.4 µM
SMILES: COC(=O)c1ccc(-c2ccc(CNc3nc(N[C@H]4CC[C@H](N)CC4)nc4c3ncn4C(C)C)cc2)cc1 [Compound 115]

The next lines start with the molecule.

SMILES: C=Cc1ccc(-c2ccc(CNc3nc(N[C@H](CC)CO)nc4c3ncn4C(C)C)cc2)cc1 [Compound 33]
GI50 (BT-549): 51.3 µM
GI50 (MCF7): 5.2 µM
GI50 (MDA-MB-435): 4.9 µM
GI50 (NCI/ADR-RES): 6.3 µM
GI50 (T-47D): 3.9 µM
GI50 (SF-268): 6.3 µM
GI50 (SF-295): 7.8 µM
GI50 (SF-539): 89.1 µM
GI50 (SNB-19): 38 µM
GI50 (U251): 3.7 µM
GI50 (COLO 205): 7.8 µM
GI50 (HCC-2998): > 1000 µM
GI50 (HCT-116): 6.2 µM
GI50 (HCT-15): 8.9 µM
GI50 (HT29): 8.9 µM
GI50 (KM12): 4.1 µM
GI50 (SW-620): 2.9 µM
GI50 (CCRF-CEM): 4.6 µM
GI50 (HL-60(TB)): 3.2 µM
GI50 (K-562): 3.1 µM
GI50 (MOLT-4): 3.8 µM
GI50 (RPMI-8226): 1.5 µM
GI50 (SR): 4.5 µM
GI50 (LOX IMVI): 16.6 µM
GI50 (M14): 7.8 µM
GI50 (MALME-3M): 11.7 µM
GI50 (SK-MEL-2): > 1000 µM
GI50 (SK-MEL-28): 5.9 µM
GI50 (SK-MEL-5): 16.2 µM
GI50 (UACC-257): 75.9 µM
GI50 (UACC-62): 8.3 µM
GI50 (A549/ATCC): 4.6 µM
GI50 (EKVX): 6.9 µM
GI50 (HOP-62): > 1000 µM
GI50 (NCI-H23): 26.3 µM
GI50 (NCI-H322M): 38.9 µM
GI50 (NCI-H460): 25.7 µM
GI50 (NCI-H522): 4.2 µM
GI50 (IGROV1): 10 µM
GI50 (OVCAR-3): > 1000 µM
GI50 (OVCAR-4): 31.6 µM
GI50 (OVCAR-5): > 1000 µM
GI50 (OVCAR-8): 6.6 µM
GI50 (SK-OV-3): > 1000 µM
GI50 (DU-145): 17.8 µM
GI50 (PC-3): > 1000 µM
GI50 (786-0): 18.6 µM
GI50 (ACHN): 5.2 µM
GI50 (CAKI-1): 4.4 µM
GI50 (TK-10): 8.3 µM
GI50 (UO-31): 8.1 µM

SMILES: CC(=O)N[C@H]1CC[C@H](Nc2nc(NCc3ccc(-c4ccsc4)cc3)c3ncn(C(C)C)c3n2)CC1 [Compound 113]
Cell Types Killed [1]: OVCAR-3
IP Score ([1]; IP fibers): 18
SC score ([1]; SC fibers): 4
MTD [2]: 200 mg/kg
IC50 (CyclinA/cdk2): 0.4 µM
IC50 (CyclinE/cdk2): 0.3 µM

SMILES: CC(=O)N[C@H]1CC[C@H](Nc2nc(NCc3ccc(-c4ccccc4)cc3)c3ncn(C(C)C)c3n2)CC1 [Compound 76]
IC50 (CyclinB/cdk1): 6 µM
melting point: 224 to 225 °C
IC50 (CyclinA/cdk2): 12 µM and 11 µM and 3 µM
IC50 (CyclinE/cdk2): 3 µM and 5 µM and 2 µM

Reference: US20030087906A1, “NITROGEN SUBSTITUTED BIARYL PURINE DERIVATIVES AS POTENT ANTIPROLIFERATIVE AGENTS” (priority 2001, published 2003)
